# Data published in patent publication US9181305B2, “Exendin-4 peptide analogues” (SANOFI, priority 2012, dated 2015).
# *1 amine or outer side, *2 acyl side, *3 side chain or, on linkers, in order; H or OH if unused. Where a SMILES comes first, the peptide text is derived from it. Side-chain parts run from the residue outwards. [ ]: non-standard residue; d: D form. The star is where a group is joined. γGlu = O=C(O)[C@H](CCC(=O)[*:2])N[*:1]; Palmitoyl = CCCCCCCCCCCCCCCC(=O)*
# Tests used:
# [1] = biological target: T1, human glucagon receptor (hGlucagon R) (Homo sapiens, UniProt P47871); test: cAMP response (HTRF) of HEK-293 cells stably expressing human glucagon receptor; type: cell-based; conditions: read-out: EC50 hGlucagonR
# T1 construct: expressed in transfected cells; host or cells: HEK-293
# Experimental: cAMP content of cells was determined using a kit from Cisbio Corp. (cat. no. 62AM4PEC) based on HTRF (Homogenous Time Resolved Fluorescence). For preparation, cells were split into T175 culture flasks and grown overnight to near confluency in medium (DMEM/10% FBS). Medium was then removed and cells washed with PBS lacking calcium and magnesium, followed by proteinase treatment with accutase (Sigma-Aldrich cat. no. A6964). Detached cells were washed and resuspended in assay buffer (1×HBSS; 20 mM HEPES, 0.1% BSA, 2 mM IBMX) and cellular density determined. […] For measurement, 25 μl of test compound in assay buffer was added to the wells, followed by incubation for 30 minutes at room temperature.
# physchem = type: physicochemical
# Experimental: Prior to the testing of solubility and stability of a peptide batch, its content was determined. Therefore, two parameters were investigated, its purity (HPLC-UV) and the amount of salt load of the batch (ion chromatography). Since synthesized peptides contain primarily trifluoracetate anions, only anion chromatography was performed. The content was then calculated based on the assumption that peptide-related impurities are detected at the same UV-absorption rate as the target peptide, as well as that cations are not present in the sample.
# Therefore, solutions from solid samples were prepared in different buffer systems with a concentration of 1.0 mg/mL compound based on the previously determined content. HPLC-UV was performed after 2 h of gentle agitation from the supernatant, which was obtained by 20 min of centrifugation at 4000 rpm. […] This analysis also served as t0 for the stability testing.
# Instrument: Agilent 1100, column: X-Bridge C18 3.5 μm 2.1×150 mm (Waters), eluent: A: H20+500 ppm TFA/B: Methanol, flow: 0.55 ml/min, gradient: 0-5 min: 10-60% B; 5-15 min: 60-99% B; detection: 214 nm.
# [2] = biological target: T2, human GLP-1 receptor (hGLP-1 R) (Homo sapiens, UniProt P43220); test: cAMP response (HTRF) of HEK-293 cells stably expressing human GLP-1 receptor; type: cell-based; conditions: HEK-293 cells expressing human GLP-1 receptor, cAMP formation
# T2 construct: expressed in transfected cells; host or cells: HEK-293
# Outline: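 Detached HEK-293 cells stably expressing the receptor were suspended in HBSS with 20 mM HEPES, 0.1% BSA and 2 mM IBMX. Test compound was added for 30 min at room temperature, and cellular cAMP was quantified by HTRF.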
# T1 sequence (P47871 26-477): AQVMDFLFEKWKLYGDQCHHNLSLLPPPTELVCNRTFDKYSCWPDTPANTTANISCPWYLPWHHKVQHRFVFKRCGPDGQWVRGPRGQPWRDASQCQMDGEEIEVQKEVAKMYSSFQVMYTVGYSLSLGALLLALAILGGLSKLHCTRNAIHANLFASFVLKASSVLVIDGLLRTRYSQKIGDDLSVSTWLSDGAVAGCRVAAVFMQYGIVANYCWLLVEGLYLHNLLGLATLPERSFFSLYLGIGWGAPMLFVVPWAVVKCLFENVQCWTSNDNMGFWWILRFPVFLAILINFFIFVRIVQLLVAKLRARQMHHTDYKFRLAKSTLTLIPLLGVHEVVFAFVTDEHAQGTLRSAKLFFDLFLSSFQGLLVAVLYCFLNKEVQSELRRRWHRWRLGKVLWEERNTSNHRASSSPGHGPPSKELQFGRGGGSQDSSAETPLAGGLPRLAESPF
# T2 sequence (P43220 24-463): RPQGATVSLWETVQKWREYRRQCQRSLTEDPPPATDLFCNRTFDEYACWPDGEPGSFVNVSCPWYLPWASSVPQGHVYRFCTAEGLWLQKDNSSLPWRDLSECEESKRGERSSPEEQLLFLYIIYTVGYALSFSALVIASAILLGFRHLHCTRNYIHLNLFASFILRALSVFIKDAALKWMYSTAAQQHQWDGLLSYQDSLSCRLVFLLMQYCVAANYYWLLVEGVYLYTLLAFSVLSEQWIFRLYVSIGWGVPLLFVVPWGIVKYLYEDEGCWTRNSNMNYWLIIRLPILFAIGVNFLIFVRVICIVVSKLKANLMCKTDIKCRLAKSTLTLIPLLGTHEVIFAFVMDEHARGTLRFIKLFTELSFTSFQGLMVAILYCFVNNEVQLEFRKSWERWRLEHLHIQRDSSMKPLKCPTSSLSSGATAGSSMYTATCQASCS
Structure (SMILES),EC50 [1] [nM],solubility at 2 h (physchem; pH 4.5) [µg/mL],solubility at 2 h (physchem; pH 7.4) [µg/mL],EC50 [2] [nM]
CC[C@H](C)[C@H](NC(=O)[C@H](Cc1ccccc1)NC(=O)[C@H](CC(=O)O)NC(=O)[C@H](CCC(N)=O)NC(=O)[C@H](C)NC(=O)[C@H](CCCNC(=N)N)NC(=O)[C@H](CCCNC(=N)N)NC(=O)[C@H](CCC(=O)O)NC(=O)[C@H](CC(=O)O)NC(=O)[C@H](CCSC)NC(=O)[C@H](CCC(N)=O)NC(=O)[C@H](CCCCN)NC(=O)[C@H](CO)NC(=O)[C@H](CC(C)C)NC(=O)[C@H](CC(=O)O)NC(=O)[C@H](CO)NC(=O)[C@@H](NC(=O)[C@H](Cc1ccccc1)NC(=O)[C@@H](NC(=O)CNC(=O)[C@H](CCC(N)=O)NC(=O)[C@H](CO)NC(=O)[C@@H](N)Cc1c[nH]cn1)[C@@H](C)O)[C@@H](C)O)C(=O)N[C@@H](CCC(=O)O)C(=O)N[C@@H](Cc1c[nH]c2ccccc12)C(=O)N[C@@H](CC(C)C)C(=O)N[C@@H](CCCCN)C(=O)N[C@@H](CC(N)=O)C(=O)NCC(=O)NCC(=O)N1CCC[C@H]1C(=O)N[C@@H](CO)C(=O)N[C@@H](CO)C(=O)NCC(=O)N[C@@H](C)C(=O)N1CCC[C@H]1C(=O)N1CCC[C@H]1C(=O)N1CCC[C@H]1C(=O)N[C@@H](CO)C(N)=O [(5)] (H-HSQGTFTSDLSKQMDERRAQDFIEWLKNGGPSSGAPPPS-NH2),0.067,,,
CCCCCCCCCCCCCCCC(=O)N[C@@H](CCC(=O)NCCCC[C@H](NC(=O)[C@H](CO)NC(=O)[C@@H]1CCCN1C(=O)[C@@H]1CCCN1C(=O)[C@@H]1CCCN1C(=O)[C@H](C)NC(=O)CNC(=O)[C@H](CO)NC(=O)[C@H](CO)NC(=O)[C@@H]1CCCN1C(=O)CNC(=O)[C@H](C)NC(=O)[C@H](CC(N)=O)NC(=O)[C@H](CCCCN)NC(=O)[C@H](CC(C)C)NC(=O)[C@H](Cc1c[nH]c2ccccc12)NC(=O)[C@H](CCC(=O)O)NC(=O)[C@@H](NC(=O)[C@H](Cc1ccccc1)NC(=O)[C@H](CC(=O)O)NC(=O)[C@H](CCC(N)=O)NC(=O)[C@H](C)NC(=O)[C@H](CCCNC(=N)N)NC(=O)[C@H](CCCNC(=N)N)NC(=O)[C@H](CO)NC(=O)[C@H](CCC(=O)O)NC(=O)[C@H](CCSC)NC(=O)[C@H](CCC(N)=O)NC(=O)[C@H](CCCCN)NC(=O)[C@H](CO)NC(=O)[C@H](CC(C)C)NC(=O)[C@H](CC(=O)O)NC(=O)[C@H](CO)NC(=O)[C@@H](NC(=O)[C@H](Cc1ccccc1)NC(=O)[C@@H](NC(=O)CNC(=O)[C@H](CCC(N)=O)NC(=O)[C@@H](CO)NC(=O)[C@@H](N)Cc1c[nH]cn1)[C@@H](C)O)[C@@H](C)O)[C@@H](C)CC)C(N)=O)C(=O)O [(64)] (H-H[dS]QGTFTSDLSKQMESRRAQDFIEWLKNAGPSSGAPPPSK([γGlu-Palmitoyl])-NH2),0.067,,,
CCCCCCCCCCCCCCCC(=O)N[C@@H](CCC(=O)NCCCC[C@H](NC(=O)[C@H](CO)NC(=O)[C@@H]1CCCN1C(=O)[C@@H]1CCCN1C(=O)[C@@H]1CCCN1C(=O)[C@H](C)NC(=O)CNC(=O)[C@H](CO)NC(=O)[C@H](CO)NC(=O)[C@@H]1CCCN1C(=O)CNC(=O)CNC(=O)[C@H](CO)NC(=O)[C@H](CCCCN)NC(=O)[C@H](CC(C)C)NC(=O)[C@H](Cc1c[nH]c2ccccc12)NC(=O)[C@H](CCC(=O)O)NC(=O)[C@@H](NC(=O)[C@H](Cc1ccccc1)NC(=O)[C@H](CC(=O)O)NC(=O)[C@H](CCC(N)=O)NC(=O)[C@H](C)NC(=O)[C@H](CCCNC(=N)N)NC(=O)[C@H](CCCNC(=N)N)NC(=O)[C@H](CO)NC(=O)[C@H](CCC(=O)O)NC(=O)[C@H](CCSC)NC(=O)[C@H](CCC(N)=O)NC(=O)[C@H](CCCCN)NC(=O)[C@H](CO)NC(=O)[C@H](CC(C)C)NC(=O)[C@H](CC(=O)O)NC(=O)[C@H](CO)NC(=O)[C@@H](NC(=O)[C@H](Cc1ccccc1)NC(=O)[C@@H](NC(=O)CNC(=O)[C@H](CCC(N)=O)NC(=O)[C@@H](CO)NC(=O)[C@@H](N)Cc1c[nH]cn1)[C@@H](C)O)[C@@H](C)O)[C@@H](C)CC)C(N)=O)C(=O)O [(78)] (H-H[dS]QGTFTSDLSKQMESRRAQDFIEWLKSGGPSSGAPPPSK([γGlu-Palmitoyl])-NH2),,> 1000,> 1000,0.0042
